Assay results taken from patent publication US20250064768A1, “METHODS AND COMPOSITIONS FOR TREATING AGING AND CHRONIC DISEASE” (priority 2021, published 2025).

Key:
[1] = mouse, in vivo
Description: The clinical development of trans-crocetin has been problematic because its oxygen diffusion enhancing effect is transient, due to two key factors. Poor solubility: trans-crocetinate monovalent metal salts such as TSC, as free drugs were designed presumably to overcome the solubility issue associated with crocetin (free acid). Short half-life: TSC half-life is approximately 30 minutes, which in a clinical setting leads to transient effect on oxygen diffusion enhancement.

[2] = human, in vivo; cited from earlier work
[3] = in vivo; cited from earlier work
HUVECs = experiment: Reoxygenation of hypoxic HUVECs (flow cytometry, BioTracker 520 green hypoxia dye); type: cell-based; conditions: HUVECs under hypoxia (1%)
Description: The % P02 was assessed based on the readout of the BioTracker 520 green hypoxia dye. (FIG. 1G) Quantification of % P02 based on the flow cytometric data. (FIG. 1H) Quantification of % P02 based on the flow cytometric data of HUVECs incubated with 120 μg/mL LEAF-4L121 over time and (FIG. 11) as a function of various concentrations of LEAF-4L121 at 24 h.
In vitro, we first sought to evaluate the reoxygenation properties of LEAF-4L121 in endothelial cells (HUVECs). The IC50 of LEAF-4L121 in HUVECs was determined after 72 h of treatment by viability assays (CellTiter-Glo, Promega). […] We next incubated HUVECs in hypoxic conditions (1% P02) for 24 h before treatment with either free TC or various concentrations of LEAF-4L121. […] This rapid oxygenation effect of LEAF-4L121 is likely attributed to a biphasic release of TC from the liposomes that includes an initial fast release (approx. 25% in the first 6 h) of some of the payload followed by a more sustained release of TC from the liposomes over a prolonged period.

mouse model of sepsis = conditions: in vitro results and mouse model of sepsis
[4] = Phase 2 clinical study of liposomal trans-crocetin: pharmacokinetics; conditions: across different dosing regimens

Compound	half-life (t½) [1]	safety in clinical trials [2]	half-life [3]	reoxygenation, PO2 (HUVECs; 30 min post-treatment, 5 μg/mL TC)	reoxygenation, PO2 (HUVECs; 3 h after treatment) [% P02]	reoxygenation activity (mouse model of sepsis)	AUC and Cmax versus body weight [4]
CC(/C=C/C=C(\C)C(=O)[O-])=C\C=C\C=C(C)\C=C\C=C(/C)C(=O)[O-].[Na+].[Na+] [TSC, trans sodium crocetinate]	half an hour	no safety concerns	approximately 30 minutes	–	–	–	–
CC(/C=C/C=C(\C)C(=O)O)=C\C=C\C=C(C)\C=C\C=C(/C)C(=O)O [TC, trans-crocetin]	–	–	–	up to 15 % PO2	5	demonstrated the reoxygenation activity	stable levels of AUC and Cmax across a wide range of body weights
